Data reported in patent US20260274861A1, “FUSED RING COMPOUND, PREPARATION METHOD THEREFOR AND MEDICINAL APPLICATION THEREOF” (JIANGSU HENGRUI PHARMACEUTICALS CO., LTD., priority 2022, published 2026).

Tests used:
Format in all cases: cell-based
AsPC-1 cells = test: Inhibition of 3D proliferation of AsPC-1 cells (CellTiter-Glo 3D); conditions: Homo sapiens, ASPC1, 120 h, 5 days
Procedure: On the first day of the experiment, well-grown AsPC-1 cells with 70%-80% confluency were digested and resuspended in an RPMI 1640 culture medium (Hyclone, SH30809.01) containing 10% FBS, and the cell density was adjusted to the desired level. The cell suspension was added to a U-shaped low-adsorption 96-well plate (Corning, CLS7007-24EA) at 90 μL/well, with a cell density of 1500 cells/well. The cell plate was centrifuged at 2500 rpm for 5 min and then incubated overnight in a 37° C., 5% CO2 incubator. The next day, 20 mM test compounds dissolved in DMSO were diluted to an initial concentration of 2 mM and then serially diluted 5-fold, and a total of 9 concentration points were obtained. Control wells were set using DMSO. The serially diluted compounds were then further diluted 20-fold with a culture medium. The test compounds, diluted with the culture medium, were added to the cell plate at 10 μL/well, with the final concentrations of the compounds being 9 concentration points obtained by 5-fold serial dilution from an initial concentration of 10 μM. Cell wells containing 0.5% DMSO were set as vehicle control wells, and wells containing only the culture medium and 0.5% DMSO were set as blank control wells. A duplicate well was set for each concentration of the compounds and the control wells, with the final concentration of DMSO in each well being 0.5%. The cell plate was centrifuged at 2500 rpm for 3 min and then incubated in a 37° C., 5% CO2 incubator for 5 days. On the seventh day, the 96-well cell culture plate was taken out, and 50 μL of the CellTiter-Glo® Luminescent 3D Cell Viability Assay reagent (Promega, G^9683) was added to each well. The plates were shaken at room temperature in the dark for 25 min. The contents in the wells were pipetted up and down for good uniformity, and then 100 μL of the mixture was transferred from each well to a white impermeable OptiPlate™-96-well plate (PerkinElmer, 6005290). The luminescence signal values were obtained using a multi-mode microplate reader (PerkinElmer, EnVision2105).
The inhibition rate was calculated using the formula: inhibition rate=(luminescence valuevehicle control well−luminescence valuetest compound)/(luminescence valuevehicle control well−luminescence valueblank control well)×100%. Curves were plotted using GraphPad Prism software based on the various concentrations of the compounds and the corresponding inhibition rates, and IC50 values for the compounds were calculated.

AGS cells = test: Inhibition of 3D proliferation of AGS cells (CellTiter-Glo 3D); conditions: Homo sapiens, 120 h, 5 days
Procedure: (§1) The inhibitory effects of the compounds of the present disclosure on the KRAS target were evaluated by assessing the inhibitory effects of the compounds of the present disclosure on the 3D proliferation of GP2d and AGS cells.
(§2) AGS cells were cultured in a complete culture medium, namely an RPM11640 medium (Hyclone, SH30809.01) containing 10% fetal bovine serum (Corning, 35-076-CV). On the first day of the experiment, the AGS cells were seeded into a 96-well low-adsorption plate (Corning, CLS7007-24EA) with a complete culture medium at a density of 1000 cells/well, with each well containing 90 μL of a cell suspension. The plate was centrifuged at 2000 rpm for 5 min at room temperature and then incubated overnight in a 37° C., 5% CO2 cell incubator.
(§3) The next day, the test compounds, serially diluted in a complete culture medium, were added at 10 μL/well. The final concentrations of the compounds for GP2d cells were 9 concentration points obtained by 5-fold serial dilution from 1 μM, and the final concentrations of the compounds for AGS cells were 9 concentration points obtained by 5-fold serial dilution from […]. A blank control containing 0.5% DMSO was set for both types of cells. The plates were incubated in a 37° C., 5% CO2 cell incubator for 5 days. On the seventh day, the 96-well cell culture plates were taken out, and 50 μL of the CellTiter-Glo® 3D Cell Viability Assay reagent (Promega, G^9682) was added to each well. The plates were shaken at room temperature in the dark for 25 min. The contents in the wells were pipetted for good uniformity, and 100 μL of the mixture was transferred from each well to a white impermeable 96-well plate (PerkinElmer, 6005290). The luminescence signal values were obtained using a multi-mode microplate reader (PerkinElmer, EnVision2105).

GP2d cells = test: Inhibition of 3D proliferation of GP2d cells (CellTiter-Glo 3D); conditions: 120 h, 5 days
Procedure: as §1
as §2, with “GP2d” for “AGS”, “a DMEM/high glucose culture” for “an RPM11640”, “SH30243.01)” for “SH30809.01)”
as §3

SMILES	IC50 (AsPC-1 cells) [nM]	IC50 (AGS cells) [nM]	IC50 (GP2d cells) [nM]
Cc1cc(N)c(F)c(-c2nc3c4c(nc(OCC5(CN6CCC(=CF)CC6)CC5)nc4c2F)N2C[C@H]4CC[C@H](N4)[C@H]2[C@H](C)O3)c1C(F)(F)F [Example 38, 2-Fluoro-3-((5S,5aS,6S,9R)-1-fluoro-12-((1-((4-(fluoromethylene)piperidin-1-yl)methyl)cyclopropyl)methoxy)-5-methyl-5a,6,7,8,9,10-hexahydro-5H-4-oxa-3,10a,11,13,14-pentaaza-6,9-methanonaphtho[1,8-ab]heptalen-2-yl)-5-methyl-4-(trifluoromethyl)aniline]	1.7	5	0.07
C[C@@H]1Oc2nc(-c3cc(N)cc(Cl)c3C(F)(F)F)c(F)c3nc(OCC4(CN5CCC(=CF)CC5)CC4)nc(c23)N2C[C@H]3CC[C@H](N3)[C@@H]12 [Example 36, 3-Chloro-5-((5S,5aS,6S,9R)-1-fluoro-12-((1-((4-(fluoromethylene)piperidin-1-yl)methyl)cyclopropyl)methoxy)-5-methyl-5a,6,7,8,9,10-hexahydro-5H-4-oxa-3,10a,11,13,14-pentaaza-6,9-methanonaphtho[1,8-ab]heptalen-2-yl)-4-(trifluoromethyl)aniline]	0.2	0.9	0.06
C=C1CN2CC(=C)CC2(COc2nc3c4c(nc(-c5cc(O)cc6ccc(F)c(CC)c56)c(F)c4n2)O[C@@H](C)[C@@H]2[C@@H]4CC[C@H](CN32)N4)C1 [Example 17, 4-((5S,5aS,6S,9R)-12-((2,6-Dimethylenetetrahydro-1H-pyrrolizin-7a(5H)-yl)methoxy)-1-fluoro-5-methyl-5a,6,7,8,9,10-hexahydro-5H-4-oxa-3,10a,11,13,14-pentaaza-6,9-methanonaphtho[1,8-ab]heptalen-2-yl)-5-ethyl-6-fluoronaphthalen-2-ol]			0.9
CCc1c(F)ccc2cc(O)cc(-c3nc4c5c(nc(OCC67CCCN6CC(=C(F)F)C7)nc5c3F)N3C[C@H]5CC[C@H](N5)[C@H]3[C@H](C)O4)c12 (stereo partly drawn) [Example 18, 4-((5S,5aS,6S,9R)-12-((2-(Difluoromethylene)tetrahydro-1H-pyrrolizin-7a(5H)-yl)methoxy)-1-fluoro-5-methyl-5a,6,7,8,9,10-hexahydro-5H-4-oxa-3,10a,11,13,14-pentaaza-6,9-methanonaphtho[1,8-ab]heptalen-2-yl)-5-ethyl-6-fluoronaphthalen-2-ol]			1.2
CCc1c(F)ccc2cc(O)cc(-c3nc4c5c(nc(OCC6(CN7CCOCC7)CC6)nc5c3F)N3C[C@H]5CC[C@H](N5)[C@H]3[C@H](C)O4)c12 [Example 5, 5-Ethyl-6-fluoro-4-((5S,5aS,6S,9R)-1-fluoro-5-methyl-12-((1-(morpholinomethyl)cyclopropyl)methoxy)-5a,6,7,8,9,10-hexahydro-5H-4-oxa-3,10a,11,13,14-pentaaza-6,9-methanonaphtho[1,8-ab]heptalen-2-yl)naphthalen-2-ol]	5.7	8.7	0.9
C[C@@H]1Oc2nc(-c3ccc(F)c4sc(N)c(C#N)c34)c(F)c3nc(OCC4(CN5CCC(=C(F)F)CC5)CC4)nc(c23)N2C[C@H]3CC[C@H](N3)[C@@H]12 [Example 41, 2-Amino-4-((5S,5aS,6S,9R)-12-((1-((4-(difluoromethylene)piperidin-1-yl)methyl)cyclopropyl)methoxy)-1-fluoro-5-methyl-5a,6,7,8,9,10-hexahydro-5H-4-oxa-3,10a,11,13,14-pentaaza-6,9-methanonaphtho[1,8-ab]heptalen-2-yl)-7-fluorobenzo[b]thiophene-3-carbonitrile]	3.7		0.4
CCc1c(F)ccc2cc(O)cc(-c3nc4c5c(nc(OCC6(CN7CC/C(=C\F)C7)CC6)nc5c3F)N3C[C@H]5CC[C@H](N5)[C@H]3[C@H](C)O4)c12 [Example 11, 5-Ethyl-6-fluoro-4-((5S,5aS,6S,9R)-1-fluoro-12-((1-(((E)-3-(fluoromethylene)pyrrolidin-1-yl)methyl)cyclopropyl)methoxy)-5-methyl-5a,6,7,8,9,10-hexahydro-5H-4-oxa-3,10a,11,13,14-pentaaza-6,9-methanonaphtho[1,8-ab]heptalen-2-yl)naphthalen-2-ol]			0.7
CCc1c(F)ccc2cc(O)cc(-c3nc4c5c(nc(OCC6(CN7CC8CC(=C(F)F)CC8C7)CC6)nc5c3F)N3C[C@H]5CC[C@H](N5)[C@H]3[C@H](C)O4)c12 (stereo partly drawn) [Example 14]			1.6
CCc1c(F)ccc2cc(O)cc(-c3nc4c5c(nc(OCC6(CN7CCC(=CF)CC7)CC6)nc5c3F)N3C[C@H]5CC[C@H](N5)[C@H]3[C@H](C)O4)c12 [Example 23, 5-Ethyl-6-fluoro-4-((5S,5aS,6S,9R)-1-fluoro-12-((1-((4-(fluoromethylene)piperidin-1-yl)methyl)cyclopropyl)methoxy)-5-methyl-5a,6,7,8,9,10-hexahydro-5H-4-oxa-3,10a,11,13,14-pentaaza-6,9-methanonaphtho[1,8-ab]heptalen-2-yl)naphthalen-2-ol]	7.9		0.2
Cc1nc(N)cc(-c2nc3c4c(nc(OCC5(CN6CCC(=CF)CC6)CC5)nc4c2F)N2C[C@H]4CC[C@H](N4)[C@H]2[C@H](C)O3)c1C(F)(F)F [Example 42, 4-((5S,5aS,6S,9R)-1-Fluoro-12-((1-((4-(fluoromethylene)piperidin-1-yl)methyl)cyclopropyl)methoxy)-5-methyl-5a,6,7,8,9,10-hexahydro-5H-4-oxa-3,10a,11,13,14-pentaaza-6,9-methanonaphtho[1,8-ab]heptalen-2-yl)-6-methyl-5-(trifluoromethyl)pyridin-2-amine]	1.8	5.2	0.21
Cc1cc(N)c(F)c(-c2nc3c4c(nc(OCC5(CN6CCC(=C(F)F)CC6)CC5)nc4c2F)N2C[C@H]4CC[C@H](N4)[C@H]2[C@H](C)O3)c1C(F)(F)F [Example 40, 3-((5S,5aS,6S,9R)-12-((1-((4-(Difluoromethylene)piperidin-1-yl)methyl)cyclopropyl)methoxy)-1-fluoro-5-methyl-5a,6,7,8,9,10-hexahydro-5H-4-oxa-3,10a,11,13,14-pentaaza-6,9-methanonaphtho[1,8-ab]heptalen-2-yl)-2-fluoro-5-methyl-4-(trifluoromethyl)aniline]			0.6
